Reference: patent publication US10981932B2, “Macrocyclic indole derivatives” (Bayer Aktiengesellschaft, priority 2016, dated 2021)
Counter-ions that a name gives are not always drawn. Like-named read-outs stand apart in the source and are kept apart here.

Tests used:
SUDHL10 [1] = test: Induction of cytotoxicity (CellTiter-Glo, 5 h), SUDHL10
SUDHL5 [2] = test: Anti-proliferative effect (CellTiter-Glo, 72 h), SUDHL5; assay type: cell-based; details: SUDHL5 cells, antiproliferation, median, read-out: Antiproli SUDHL5 [M] (median)
In short: (§1)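 Plate cells alongside a separate day 0 reference plate. Read the reference plate at once with CellTiter-Glo. Incubate treated cells 72 h at 37 °C, then read them the same way by luminescence.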

MCL-1 = MCL-1 (Homo sapiens, UniProt Q07820); test: Protein-protein interaction assay MCL-1/Noxa BH3 peptide (MCL-1 assay), TR-FRET; assay type: binding; details: MBP-MCL-1 / Noxa BH3-derived peptide, median
In short: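 Steady-state competition, MCL-1/Noxa BH3, TR-FRET readout; 1 nM MBP-MCL-1, 11-point dose series 0.1 nM–20 μM; overnight 4 °C equilibration; 4-parameter IC50.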

SUDHL10 [3] = test: Induction of caspase-3/7 activity (Caspase-Glo 3/7), SUDHL10; assay type: cell-based; details: caspase-3/7 induction, SUDHL10 cells, 3 h treatment, median
In short: (§2)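 A 3 h, 37 °C compound incubation precedes the Caspase-Glo 3/7 read. After subtracting medium-only signal, EC50s are fitted against the reference compound's maximal caspase induction.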

SUDHL5 [4] = test: Induction of cytotoxicity (CellTiter-Glo, 5 h), SUDHL5
A2780 = test: Anti-proliferative effect (CellTiter-Glo, 72 h), A2780; assay type: cell-based; details: A2780 cells, median, read-out: IC50 antiproliferation assay A2780 [M] (median)
In short: as §1

SUDHL10 [5] = test: Anti-proliferative effect (CellTiter-Glo, 72 h), SUDHL10; assay type: cell-based; details: SUDHL10 cells, antiproliferation, median, read-out: Antiproli SUDHL10 [M] (median)
In short: as §1

SUDHL5 [6] = test: Induction of caspase-3/7 activity (Caspase-Glo 3/7), SUDHL5; assay type: cell-based; details: caspase-3/7 induction, SUDHL5 cells, 3 h treatment, median
In short: as §2

[7] = read-out: Cytotox SUDHL10 [M] (median), SUDHL10 cells, cytotoxicity induction, CellTiter-Glo, 5 h incubation, median
[8] = read-out: Cytotox SUDHL5 [M] (median), SUDHL5 cells, cytotoxicity induction, CellTiter-Glo, 5 h incubation, median
[9] = Homo sapiens, SU-DHL10, 5 h, read-out: Cytotox SUDHL10 [M] (median), SUDHL10 cells, cytotoxicity induction, CellTiter-Glo, 5 h incubation, median
[10] = Homo sapiens, SU-DHL10, 72 h, 72 h incubation

MCL-1, sequence (Q07820 whole entry): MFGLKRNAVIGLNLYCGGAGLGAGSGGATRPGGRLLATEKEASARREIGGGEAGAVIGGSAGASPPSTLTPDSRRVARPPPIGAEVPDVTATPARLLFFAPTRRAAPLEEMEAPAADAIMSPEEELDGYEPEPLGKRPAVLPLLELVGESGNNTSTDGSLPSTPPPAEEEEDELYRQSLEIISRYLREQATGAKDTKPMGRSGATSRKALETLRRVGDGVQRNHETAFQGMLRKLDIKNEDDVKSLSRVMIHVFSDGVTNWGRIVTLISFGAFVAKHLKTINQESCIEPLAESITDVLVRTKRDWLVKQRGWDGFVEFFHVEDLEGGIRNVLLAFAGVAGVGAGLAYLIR

Row | Compound | IC50 (SUDHL10 [1]; [7]) [M] | IC50 (SUDHL5 [2]; 72 h incubation) [M] | IC50 (MCL-1) [µM] | EC50 (SUDHL10 [3]) [µM] | IC50 (SUDHL5 [4]; [8]) [M] | IC50 (A2780) [M] | IC50 (SUDHL10 [5]; 72 h incubation) [M] | EC50 (SUDHL5 [6]) [µM] | IC50 (SUDHL10 [1]; [9]) [M] | IC50 (SUDHL5 [2]; Homo sapiens, SU-DHL-5, 72 h, 72 h incubation) [M] | EC50 (SUDHL10 [3]; Homo sapiens, SU-DHL10, 3 h) [µM] | IC50 (SUDHL5 [4]; Homo sapiens, SU-DHL-5, 5 h, read-out: Cytotox SUDHL5 [M] (median), SUDHL5 cells, cytotoxicity induction, CellTiter-Glo, 5 h incubation, median) | IC50 (A2780; Homo sapiens, A2780, 72 h) [M] | IC50 (SUDHL10 [5]; [10]) [M] | EC50 (SUDHL5 [6]; Homo sapiens, SU-DHL-5, 3 h) [µM] | IC50 (SUDHL10 [1]; Homo sapiens, SU-DHL10, 5 h, read-out: Cytotox SUDHL10 [M] (median), SUDHL10 cells, cytotoxicity induction, CellTiter-Glo, 5 h, median) | IC50 (SUDHL5 [2]; Homo sapiens, SU-DHL-5, 72 h, 72 h) [M] | IC50 (SUDHL5 [4]; Homo sapiens, SU-DHL-5, 5 h, read-out: Cytotox SUDHL5 [M] (median), SUDHL5 cells, cytotoxicity induction, CellTiter-Glo, 5 h, median) | IC50 (SUDHL10 [5]; Homo sapiens, SU-DHL10, 72 h, 72 h) [M]
1 | Cc1ccc2c(C(C)CCOc3cccc4ccccc34)c(C(=O)O)n3c2c1-c1c(C)nn(C)c1COCCCC3 (single isomer, unassigned) [Example 258, 1,3,4-trimethyl-7-[4-(naphthalen-1-yloxy)butan-2-yl]-1,10,11,12,13,15-hexahydropyrazolo[4′,3′:9,10][1,6]oxazacycloundecino[8,7,6-hi]indole-8-carboxylic Acid] | > 3.3e-05 | 1.92e-05 | 12 | > 33 | > 3.3e-05 | 2.3e-05 | 1.16e-05 | > 33 |  |  |  |  |  |  |  |  |  |  | 
2 | Cn1ccnc1COCc1nn(C)c2c1-c1cccc3c(CCCOc4cccc5ccccc45)c(C(=O)O)n(c13)CCCCOC2 (single isomer, unassigned) [Example 233, (−)-1-methyl-3-{[(1-methyl-1H-imidazol-2-yl)methoxy]methyl}-7-[3-(naphthalen-1-yloxy)propyl]-1,10,11,12,13,15-hexahydropyrazolo[4′,3′:9,10][1,6]oxazacycloundecino[8,7,6-hi]indole-8-carboxylic Acid] | > 3.3e-05 | 9.23e-06 | 0.242 | > 33 | 2.15e-05 | > 3.3e-05 | 1.85e-05 | 25.3 |  |  |  |  |  |  |  |  |  |  | 
3 | Cn1nc(CCN2CCOCC2)c2c1COCCCCn1c(C(=O)O)c(CCCOc3cccc4ccccc34)c3cccc-2c31 (single isomer, unassigned; enantiomer 2) [Example 152, 1-methyl-3-(2-(morpholin-4-yl)ethyl-7-[3-(naphthalen-1-yloxy)propyl]-11,10,11,12,13,15-hexahydropyrazolo[4′,3′:9,10][1,6]oxazacycloundecino[8,7,6-hi]indole-8-carboxylic acid-N-ethylethanamine Salt (Enantiomer 2)] | > 3.3e-05 | > 3.3e-05 | 0.379 | > 33 | > 3.3e-05 | > 3.3e-05 | 1.76e-05 | > 33 |  |  |  |  |  |  |  |  |  |  | 
4 | CCCc1nn(C)c2c1-c1c(C)ccc3c(CCCOc4cccc5ccccc45)c(C(=O)O)n(c13)CCCCOC2 (single isomer, unassigned; enantiomer 2) [Example 189, 1,4-dimethyl-7-[3-(naphthalen-1-yloxy)propyl]-3-propyl-1,10,11,12,13,15-hexahydropyrazolo[4′3′:9,10][1,6]oxazacycloundecino[8,7,6-hi]indole-8-caboxylic acid-N-ethylethanamine Salt (Enantiomer 2)] | > 3.3e-05 | 1.09e-05 | 0.142 | > 33 | 2.86e-05 | 1.78e-05 | 2.01e-05 | > 33 |  |  |  |  |  |  |  |  |  |  | 
5 | Cc1nn(CCN2CCOCC2)c2c1-c1cccc3c(CCCOc4cccc5ccccc45)c(C(=O)O)n(c13)CCCCOC2 (single isomer, unassigned; enantiomer 2) [Example 097, 3-methyl-1-[2-(morpholin-4-yl)ethyl]-7-[3-(naphthalen-1-yloxy)propyl]-1,10,11,12,13,15-hexahydropyrazolo[4′,3′:9,10][1,6]oxazacycloundecino[8,7,6-hi]indole-carboxylic acid-N-ethylethanamine Salt (Enantiomer 2)] | > 3.3e-05 | 2.25e-05 | 0.0589 | > 33 | 3.05e-05 | 2.84e-05 | 1.21e-05 | > 33 |  |  |  |  |  |  |  |  |  |  | 
6 | Cc1cc2c(OCCCc3c(C(=O)O)n4c5c(cccc35)-c3c(C)nn(C)c3COCCCC4)cccc2cc1F (racemic) [Example 049, (rac)-7-{3-[(6-fluoro-7-methylnaphthalen-1-yl)oxy]propyl}-1,3-dimethyl-1,10,11,12,13,15-hexahydropyrazolo[4′,3′:9,10][1,6]oxazacycloundecino[8,7,6-hi]indole-8-carboxylic Acid] |  |  | 0.00318 |  |  |  |  |  | 3.14e-05 | 1.1e-05 | > 33 | 1.13e-05 | 1.57e-05 | 6.98e-06 | 14.2 |  |  |  | 
7 | Cn1nc(COc2cncnc2)c2c1COCCCCn1c(C(=O)O)c(CCCOc3cccc4ccccc34)c3cccc-2c31 (single isomer, unassigned) [Example 211, 1-methyl-7-[3-(naphthalen-1-yloxy)propyl]-3-[(pyrimidin-5-yloxy)methyl]-1,10,11,12,13,15-hexahydropyrazolo[4′,3′:9,10][1,6]oxazacycloundecino[8,7,6-hi]indole-8-carboxylic Acid] |  | 2.44e-06 | 0.174 |  | > 3.3e-05 |  |  | > 33 | > 3.3e-05 |  | > 33 |  | > 3.3e-05 | 4.44e-06 |  |  |  |  | 
8 | CCn1nc2c(c1C1CC1)-c1cccc3c(CCCOc4cccc5ccccc45)c(C(=O)O)n(c13)CCCCOC2 (single isomer, unassigned; enantiomer 2) [Example 083, 3-cyclopropyl-2-ethyl-7-[3-(naphthalen-1-yloxy)propyl]-2,10,11,12,13,15-hexahydropyrazolo[4′,3′:9,10][1,6]oxazacycloundecino[8,7,6-hi]indole-8-carboxylic acid-N-ethylethanamine Salt (Enantiomer 2)] | > 3.3e-05 | 2.68e-05 | 0.172 | > 33 | > 3.3e-05 | 1.38e-05 | 1.47e-05 | > 33 |  |  |  |  |  |  |  |  |  |  | 
9 | CN(C)Cc1nn(C)c2c1-c1cccc3c(CCCOc4cccc5ccccc45)c(C(=O)O)n(c13)CCCCOC2 (racemic) [Example 331, (rac)-3-[(dimethylamino)methyl]-1-methyl-7-[3-(naphthalen-1-yloxy)propyl]-1,10,11,12,13,15-hexahydropyrazolo[4′,3′:9,10][1,6]oxazacycloundecino[8,7,6-hi]indole-8-carboxylic Acid] |  |  | 0.185 |  |  |  |  |  |  |  | > 33 |  | > 3.3e-05 |  | > 33 | > 3.3e-05 | > 3.3e-05 | > 3.3e-05 | > 3.3e-05
10 | Cc1c2c(nn1C)CCCCCCn1c(C(=O)O)c(CCCOc3cccc4ccccc34)c3cccc-2c31 (single isomer, unassigned; enantiomer 2) [Example 192, 2,3-dimethyl-7-[3-(1-naphthyloxy)propyl]-10,11,12,13,14,15-hexahydro-2H-pyrazolo[4′,3′:4,5]azacycloundecino[3,2,1-hi]indole-8-carboxylic acid-N-ethylethanamine Salt (Enantiomer 2)] | > 3.3e-05 | 2.03e-05 | 0.123 | > 33 | > 3.3e-05 | 1.8e-05 | 9.22e-06 | > 33 |  |  |  |  |  |  |  |  |  |  | 
11 | COCCn1nc(C2CC2)c2c1COCCCCn1c(C(=O)O)c(CCCOc3cccc4ccccc34)c3cccc-2c31 (single isomer, unassigned; enantiomer 1) [Example 103, 3-cyclopropyl-1-(2-methoxyethyl)-7-[3-(naphthalen-1-yloxy)propyl]-1,10,11,12,13,15-hexahydropyrazolo[4′,3′:9,10][1,6]oxazacycloundecino[8,7,6-hi]indole-8-carboxylic acid-N-ethylethanamine Salt (Enantiomer 1)] | 8.83e-06 | 4.28e-06 | 0.00298 | 8.71 | 3.55e-06 | 2.72e-05 |  | 2.66 |  |  |  |  | > 3.3e-05 | 7.52e-06 |  |  |  |  | 
